{"source": "patent US3955959A", "about": "“Herbicide for use in transplanted rice” (priority 1974, dated 1976)", "key": {"[1]": {"tested_on": "Eo (Echinochloa oryzicola)", "test": "Example 1 field test, weed control in transplanted rice, Iri, Korea", "type": "in vivo", "conditions": "av. of 36 and 63 DAT", "source_text": "(§1) In the field test 48 day-old seedlings (Watanabe variety) were transplanted to plots 2.5 × 6 m. seeded with the weed seeds indicated in Table 1. At 5 and 10 DAT periods, the herbicides were applied to the plants (now at the 1.2 and 2.0 leaf stage, respectively, of grass weed) at the indicated rate in kilograms per hectare (kg/ha). The weed control and rice injury results for 3 replications are reported in percentages as of the indicated times of observation. The percentages given in the \"Perennials\" column are based on the weight of the weeds at 63 DAT, i.e., 42 gms/3.6 m^2 for the weedy check."}, "[2]": {"tested_on": "Mv (Monochoria vaginalis)", "test": "Example 1 field test, weed control in transplanted rice, Iri, Korea", "type": "in vivo", "conditions": "av. of 36 and 63 DAT", "source_text": "as §1"}, "Aj (Aneiliema japonica)": {"tested_on": "Aj (Aneiliema japonica)", "test": "Example 1 field test, weed control in transplanted rice, Iri, Korea", "type": "in vivo", "conditions": "av. of 36 and 63 DAT", "source_text": "as §1"}, "Ci (Cyperus iria)": {"tested_on": "Ci (Cyperus iria)", "test": "Example 1 field test, weed control in transplanted rice, Iri, Korea", "type": "in vivo", "conditions": "av. of 36 and 63 DAT", "source_text": "as §1"}, "[3]": {"tested_on": "Ec (Echinochloa crusgalli)", "test": "Example 5 field test, weed control, JAAPR, Japan", "type": "in vivo", "conditions": "1.5 kg/ha, 7 DAT", "description": "(§2) The rice seedlings were grown to the 1.7 leaf stage for infant seedlings and to the 5.5 leaf stage for ordinary seedlings. Two days after puddling the soil in which the seedlings were to be transplanted, both infant and ordinary seedlings were transplanted into plots 8.5 m^2.\n(§3) The weed symbol \"Obw\" represents \"other broadleaf weeds\" of unspecified identity."}, "transplanted rice [4]": {"tested_on": "transplanted rice", "test": "Example 1 field test, rice injury", "type": "in vivo, rice (Watanabe variety)", "source_text": "as §1"}, "transplanted rice [5]": {"tested_on": "transplanted rice", "test": "Example 2 field test, crop injury", "conditions": "obs. 63 DAT", "procedure": "In the tests described in the tables below, the herbicides were formulated and used in granular form in conventional manner. […] The commercial herbicide used was a granular product having 5% active ingredient.\nIn the field tests of the herbicide of this invention with transplanted rice, the rice seedlings were grown in conventional manner, by seeding the rice in a typical seedbed of sandy loam to clay soil of the country wherein the test was conducted. For laboratory and greenhouse work the seedlings were obtained by seeding rice in a mixture of soil, e.g., Ray silt loam, and peat in wood flats. For purposes of testing the herbicides on younger rice seedlings (infant or Dapog) the rice was usually allowed to grow for 6-15 days before lifting for transplanting. Older (ordinary) rice plants were usually grown for a period of about 2-3 weeks, or as much as about 7 weeks before lifting. Since the period of growth is dependent upon climatic conditions, a better measure of when to transplant the rice seedling is the leaf stage of growth; for infant or Dapog rice the seedling is lifted at the 1.5-2 leaf stage of growth, and for ordinary seedlings at the 2.5-5 leaf stage. The seedlings were then transplanted to the test plots for evaluation of the herbicide for injury against weed species present with the transplanted rice. The herbicides were then applied to the growth medium of the weeds and transplant rice, either preemergent or postemergent with respect to the weeds and postemergent with respect to the transplanted rice. Application times are designated in the tables as \"DAT\", meaning \"days after transplant\". Application rates given in the tables refer to the amount of active ingredient used.\nRice seedlings (ordinary) of Tainan No. 5 variety (japonica) were transplanted at 19 days of growth. Granular formulations of Herbicides A and B were applied at the 1 leaf stage of grass weed (4 DAT) and 2.5 leaf stage of grass weed (10 DAT). Observations were made at 63 DAT and results reported in Table 2 as an average of 3 replications."}, "[6]": {"tested_on": "Ea (Eleocharis acicularis)", "test": "Example 5 field test, weed control, JAAPR, Japan", "type": "in vivo", "conditions": "1.5 kg/ha, 7 DAT", "description": "as §2, §3"}, "[7]": {"tested_on": "weeds in upland direct-seeded rice", "test": "Example 7 overall", "type": "in vivo", "conditions": "particular spectrum of weeds", "procedure": "In a further comparative study of the preemergence activity of Herbicides A and B, a variety of weeds and upland direct-seeded rice were tested under greenhouse conditions. The present invention is not concerned with the use of Herbicide A in direct-seeded rice. The primary purpose of the experimental work in this example is to compare relative herbicidal activity of Herbicides A and B against the weeds shown in Table 7; most of these weeds were not available for tests with transplanted rice. Although the relative selectivity of these herbicides in upland rice is also evident, that aspect of the tests is more or less incidental to the purpose of this example.\nIn this example, rice seeds and seeds of the weeds shown in Table 7 were sown in Ray silt loam soil at a depth of 0.5 inch (1.27 cm) in containers for the soil in a greenhouse. Herbicides A and B were applied to the surface of the soil at a spray volume equivalent to 20 gals/acre (187.1 liters/hectare), followed by 0.5 in (1.27 cm) of overhead irrigation. Temperature and relative humidity in the greenhouse were on the order of 85°F (29°C) and 75%, respectively. Observations were made at 21-28 days after seeding. […]"}}, "data": [{"smiles": "CCCCOCN(C(=O)CCl)c1c(CC)cccc1CC", "note": "[Herbicide B, n-(butoxymethyl)-2',6'-diethyl-2-chloroacetanilide, reference compound]", "values": [{"measurement": "% Weed Control (Eo)", "setting": "[1]; 5 DAT, 1.0 kg/ha", "result": 64, "unit": "%"}, {"measurement": "% Weed Control (Eo)", "setting": "[1]; 5 DAT, 1.5 kg/ha", "result": 89, "unit": "%"}, {"measurement": "% Weed Control (Eo)", "setting": "[1]; 5 DAT, 3.0 kg/ha", "result": 92, "unit": "%"}, {"measurement": "% Weed Control (Eo)", "setting": "[1]; 10 DAT, 1.0 kg/ha", "result": 68, "unit": "%"}, {"measurement": "% Weed Control (Eo)", "setting": "[1]; 10 DAT, 1.5 kg/ha", "result": 83, "unit": "%"}, {"measurement": "% Weed Control (Eo)", "setting": "[1]; 10 DAT, 3.0 kg/ha", "result": 77, "unit": "%"}, {"measurement": "% Weed Control (Mv)", "setting": "[2]; 5 DAT, 1.0 kg/ha", "result": 43, "unit": "%"}, {"measurement": "% Weed Control (Mv)", "setting": "[2]; 5 DAT, 1.5 kg/ha", "result": 55, "unit": "%"}, {"measurement": "% Weed Control (Mv)", "setting": "[2]; 5 DAT, 3.0 kg/ha", "result": 70, "unit": "%"}, {"measurement": "% Weed Control (Mv)", "setting": "[2]; 10 DAT, 1.0 kg/ha", "result": 58, "unit": "%"}, {"measurement": "% Weed Control (Mv)", "setting": "[2]; 10 DAT, 1.5 kg/ha", "result": 75, "unit": "%"}, {"measurement": "% Weed Control (Mv)", "setting": "[2]; 10 DAT, 3.0 kg/ha", "result": 69, "unit": "%"}, {"measurement": "% Weed Control (Aj)", "setting": "Aj (Aneiliema japonica); 5 DAT, 1.0 kg/ha", "result": 79, "unit": "%"}, {"measurement": "% Weed Control (Aj)", "setting": "Aj (Aneiliema japonica); 5 DAT, 1.5 kg/ha", "result": 76, "unit": "%"}, {"measurement": "% Weed Control (Aj)", "setting": "Aj (Aneiliema japonica); 5 DAT, 3.0 kg/ha", "result": 85, "unit": "%"}, {"measurement": "% Weed Control (Aj)", "setting": "Aj (Aneiliema japonica); 10 DAT, 1.0 kg/ha", "result": 58, "unit": "%"}, {"measurement": "% Weed Control (Aj)", "setting": "Aj (Aneiliema japonica); 10 DAT, 1.5 kg/ha", "result": 77, "unit": "%"}, {"measurement": "% Weed Control (Aj)", "setting": "Aj (Aneiliema japonica); 10 DAT, 3.0 kg/ha", "result": 78, "unit": "%"}, {"measurement": "% Weed Control (Ci)", "setting": "Ci (Cyperus iria); 5 DAT, 1.0 kg/ha", "result": 98, "unit": "%"}, {"measurement": "% Weed Control (Ci)", "setting": "Ci (Cyperus iria); 5 DAT, 1.5 kg/ha", "result": 97, "unit": "%"}, {"measurement": "% Weed Control (Ci)", "setting": "Ci (Cyperus iria); 5 DAT, 3.0 kg/ha", "result": 99, "unit": "%"}, {"measurement": "% Weed Control (Ci)", "setting": "Ci (Cyperus iria); 10 DAT, 1.0 kg/ha", "result": 54, "unit": "%"}, {"measurement": "% Weed Control (Ci)", "setting": "Ci (Cyperus iria); 10 DAT, 1.5 kg/ha", "result": 100, "unit": "%"}, {"measurement": "% Weed Control (Ci)", "setting": "Ci (Cyperus iria); 10 DAT, 3.0 kg/ha", "result": 93, "unit": "%"}, {"measurement": "control of Ec in words", "setting": "[3]", "result": "substantially complete control"}, {"measurement": "% Weed Control (Ec)", "setting": "[3]; infant seedlings", "result": 99, "unit": "%"}, {"measurement": "% Weed Control (Ec)", "setting": "[3]; ordinary seedlings", "result": 81, "unit": "%"}, {"measurement": "% Rice Injury", "setting": "transplanted rice [4]; 5 DAT, 1.0 kg/ha, obs. 21 DAT", "result": 0, "unit": "%"}, {"measurement": "% Rice Injury", "setting": "transplanted rice [4]; 5 DAT, 1.0 kg/ha, obs. 42 DAT", "result": 0, "unit": "%"}, {"measurement": "% Rice Injury", "setting": "transplanted rice [4]; 5 DAT, 1.5 kg/ha, obs. 21 DAT", "result": 0, "unit": "%"}, {"measurement": "% Rice Injury", "setting": "transplanted rice [4]; 5 DAT, 1.5 kg/ha, obs. 42 DAT", "result": 0, "unit": "%"}, {"measurement": "% Rice Injury", "setting": "transplanted rice [4]; 5 DAT, 3.0 kg/ha, obs. 21 DAT", "result": 5, "unit": "%"}, {"measurement": "% Rice Injury", "setting": "transplanted rice [4]; 5 DAT, 3.0 kg/ha, obs. 42 DAT", "result": 0, "unit": "%"}, {"measurement": "% Rice Injury", "setting": "transplanted rice [4]; 10 DAT, 1.0 kg/ha, obs. 21 DAT", "result": 0, "unit": "%"}, {"measurement": "% Rice Injury", "setting": "transplanted rice [4]; 10 DAT, 1.0 kg/ha, obs. 42 DAT", "result": 0, "unit": "%"}, {"measurement": "% Rice Injury", "setting": "transplanted rice [4]; 10 DAT, 1.5 kg/ha, obs. 21 DAT", "result": 0, "unit": "%"}, {"measurement": "% Rice Injury", "setting": "transplanted rice [4]; 10 DAT, 1.5 kg/ha, obs. 42 DAT", "result": 0, "unit": "%"}, {"measurement": "% Rice Injury", "setting": "transplanted rice [4]; 10 DAT, 3.0 kg/ha, obs. 21 DAT", "result": 0, "unit": "%"}, {"measurement": "% Rice Injury", "setting": "transplanted rice [4]; 10 DAT, 3.0 kg/ha, obs. 42 DAT", "result": 0, "unit": "%"}, {"measurement": "% Crop Injury, stand", "setting": "transplanted rice [5]; 4 DAT, 1.0 kg/ha", "result": 0, "unit": "%"}, {"measurement": "% Crop Injury, vigor", "setting": "transplanted rice [5]; 4 DAT, 1.0 kg/ha", "result": 0, "unit": "%"}, {"measurement": "% Crop Injury, stand", "setting": "transplanted rice [5]; 4 DAT, 1.5 kg/ha", "result": 0, "unit": "%"}, {"measurement": "% Crop Injury, vigor", "setting": "transplanted rice [5]; 4 DAT, 1.5 kg/ha", "result": 0, "unit": "%"}, {"measurement": "% Crop Injury, stand", "setting": "transplanted rice [5]; 4 DAT, 3.0 kg/ha", "result": 0, "unit": "%"}, {"measurement": "% Crop Injury, vigor", "setting": "transplanted rice [5]; 4 DAT, 3.0 kg/ha", "result": 0, "unit": "%"}, {"measurement": "% Crop Injury, stand", "setting": "transplanted rice [5]; 10 DAT, 1.0 kg/ha", "result": 0, "unit": "%"}, {"measurement": "% Crop Injury, vigor", "setting": "transplanted rice [5]; 10 DAT, 1.0 kg/ha", "result": 0, "unit": "%"}, {"measurement": "% Crop Injury, stand", "setting": "transplanted rice [5]; 10 DAT, 1.5 kg/ha", "result": 0, "unit": "%"}, {"measurement": "% Crop Injury, vigor", "setting": "transplanted rice [5]; 10 DAT, 1.5 kg/ha", "result": 0, "unit": "%"}, {"measurement": "% Crop Injury, stand", "setting": "transplanted rice [5]; 10 DAT, 3.0 kg/ha", "result": 0, "unit": "%"}, {"measurement": "% Crop Injury, vigor", "setting": "transplanted rice [5]; 10 DAT, 3.0 kg/ha", "result": 0, "unit": "%"}, {"measurement": "control of Ea in words", "setting": "[6]", "result": "complete control"}, {"measurement": "% Weed Control (Ea)", "setting": "[6]; infant seedlings", "result": 100, "unit": "%"}, {"measurement": "% Weed Control (Ea)", "setting": "[6]; ordinary seedlings", "result": 93, "unit": "%"}, {"measurement": "selectivity, A vs B, upland direct-seeded rice", "setting": "[7]", "result": "slightly more selective"}]}]}
